What was measured:
honeybees = assay: Honeybee repellency at feeding stations, repellent in 50% sucrose solution; format: in vivo
Method: FIG. 1 describes the feeding station arrangement (A and B) for the honeybee repulsion experiments described herein. As set forth in FIG. 1, panel (A) sets forth the bee cage positions on the left portion of panel (A) with the randomized feeding station positions on the right portion of panel (A). Panel (B) sets forth an alignment of the randomized feeding station positions with a distance of two meters between feeding stations. A total of eight feeding stations were evaluated at a ten meter distance in front of the respective bee hives. The feeding stations were placed two meters apart from one another.
Honeybees were trained to deep feeders (eight positions), each containing a 50% sucrose solution for one day. After the honeybees were trained to each feeder, the 50% sucrose feeder at randomized positions 1-8 was replaced with a shallow feeder containing a combination of repelling compounds and a 50% sucrose solution according to Table 3. In accordance with FIGS. 5 and 6, 2% by weight of Camphor oil (T4), Ajowan oil (T5), Camphor powder (T6), Rosemary oil (T7), and 2-Decanone (T8) in combination with a 50% sucrose treatment were added to feeders on day two.
Table 3 describes active agents evaluated for bee repulsion and their randomized feeding station positions. As described in Table 3, T1 (control), T2 (control), T3 (control), T4 (Camphor oil), T5 (Ajowan oil), T6 (Camphor powder), T7 (Rosemary oil), and T8 (2-Decanone).
FIG. 5 evaluates the number of bees visiting a respective feed station over a time interval. FIG. 6 sets forth the mean number of honeybees visiting feeding station over a period of four hours.

[1] = Stability test of Poncho 600 with Eugenol, clothianidin content by HPLC; format: physicochemical; conditions: combined with Eugenol; up to 54° C. for seven days
Method: Table 4 describes a stability test with a combination of Eugenol and Poncho evaluated at room temperature, 40° C., and 54° C. at zero time, 3 days, and 7 days as confirmed by high performance liquid chromatography (HPLC).

[2] = Stability test of Poncho 600 with α-terpineol, clothianidin content by HPLC; format: physicochemical; conditions: combined with alpha-terpineol; up to 54° C. for eight days
Method: Table 5 describes a stability test with a combination of α-terpineol and Poncho 600 evaluated at room temperature, 40° C., and 54° C. at zero time, 2 days, and 8 days as confirmed by HPLC.

CCCCCCCCC(C)=O [Compound 2-decanone, 2-decanone]
repellency over the full 4 hour assessment period (honeybees; 2% by weight with 50% sucrose, 4 hours): highly repellent | repellency at 24 hours (honeybees; 2% by weight with 50% sucrose): still repellent | repellency at 24 hours (honeybees; 2% by weight with 50% sucrose, listed as 2-Decanone): exhibited repellency | repellent effect relative to comparators (honeybees; relative to camphor oil, ajowan oil, camphor powder, or rosemary oil, FIGS. 5-6): larger repellent effect

CN/C(=N\[N+](=O)[O-])NCc1cnc(Cl)s1 [clothianidin]
chemical stability of clothianidin content [1]: exhibited chemical stability | chemical stability of clothianidin content [2]: exhibited chemical stability

Source: patent US20160029628A1, “COMPOUNDS, COMPOSITIONS, AND METHODS FOR REPELLING AN INSECT FROM AN AREA,ARTICLE, AND/OR STRUCTURE” (BAYER CROPSCIENCE LP, priority 2013, published 2016)
